The source of these data is PubChem BioAssay AID1996.

Converted amounts (≈) assume the structure as drawn. A value given as a limit tells only on which side of the number the result lay.

A word on the kinetic solubility: it is solubility judged after dilution from a stock solution rather than from solid.

The conditions of this data set: buffer; pH 7.4; 200.0 µM.
`O=C(Nc1ccccc1C(=O)NC1CC1)c1ccc([N+](=O)[O-])o1`: the solubility (kinetic) is greater than 0.0473 mg/mL. `Cc1[nH]c2ccccc2c1/C=C(\C#N)C(=O)NCC1CCCO1` (configuration not stated) showed a kinetic solubility of 0.0206 mg/mL (≈ 66.6 µM). `Cc1cc(C)cc(N2C(=O)CCN(Cc3ccccc3)C2=O)c1` returned a kinetic solubility of 0.038 mg/mL (≈ 123 µM). Next, `CCc1ccccc1NC(=O)CCS(=O)(=O)c1ccc(C)cc1`: greater than 0.0497 mg/mL; `Cc1cccc(C(=O)OCC(=O)c2ccc3c(c2)NC(=O)CO3)c1`: 0.0045 mg/mL (≈ 13.8 µM). Next, `Cl.O=C(O)C1CCN(Cc2cccnc2)CC1`: greater than 0.0385 mg/mL.

As for `COC(=O)C1=C(N)OC2=C(C(=O)CCC2)C1c1ccccc1OC` (configuration not stated), the kinetic solubility turned out to be 0.0145 mg/mL (≈ 44 µM). Next, `O=C(NC(=S)NCc1ccccc1)c1cccs1`: 0.0014 mg/mL (≈ 5.07 µM). Next, `CCN(C(=O)CSc1nnc(-c2ccc(F)cc2)n1C)C1CCS(=O)(=O)C1` (configuration not stated): greater than 0.0619 mg/mL; `COC(=O)Cn1c(C(O)c2ccccc2)nc2ccccc21` (configuration not stated): greater than 0.0444 mg/mL; `COc1ccc(-c2cc3nc(CCl)[nH]c(=O)c3s2)cc1`: 0.0028 mg/mL (≈ 9.13 µM).

As for `CC1CN(C2=N/C(=C/c3ccc4c(c3)OCO4)C(=O)N2)CC(C)O1` (configuration not stated), the solubility (kinetic) worked out at 0.0247 mg/mL (≈ 75 µM).

In turn, `CCN(CC)c1ccc(NC(=O)c2ccc3c(c2)OCO3)cc1` yielded a solubility (kinetic) of 0.0064 mg/mL (≈ 20.5 µM). Consider `O=C(COC(=O)C(CO)NS(=O)(=O)c1ccc(Br)cc1)Nc1ccc2c(c1)OCCO2` (configuration not stated), for which the solubility (kinetic) was greater than 0.0773 mg/mL. Next, `O=C(CCCl)Nc1nc2c(s1)CCc1ccccc1-2`: 0.0072 mg/mL (≈ 24.6 µM); `CCCc1cc(C(=O)Nc2ccc(C(=O)OC)cc2)cs1`: less than 0.0006 mg/mL. Next, `CCOC(=O)N1CCN(CC(=O)Nc2ccc(F)c(F)c2)CC1`: greater than 0.0491 mg/mL. In turn, `CCOc1nc(-c2ccccc2)c2cc(C)ccc2n1` came in with a solubility (kinetic) of 0.0048 mg/mL (≈ 18.2 µM). Next, `Cc1ccc(S(=O)(=O)NCCOc2nc(N(C)C)nc(N(C)C)n2)cc1`: 0.0528 mg/mL (≈ 139 µM). The compound `Cl.Clc1ccccc1CNCc1ccncc1` gave a solubility (kinetic) of 0.0389 mg/mL. Next, `O=C(Nc1nncs1)C1CC(=O)N(C2CCCC2)C1` (configuration not stated): greater than 0.0421 mg/mL; `Cc1ccc(-c2c(C)sc3nc[nH]c(=O)c23)cc1C`: 0.0397 mg/mL (≈ 147 µM). Next, `O=C(O)CCC(=O)NCc1c(Cl)cccc1Sc1ccc(Cl)cc1`: 0.0383 mg/mL (≈ 99.7 µM); `CC(C(=O)Nc1ccccc1)N1CCN(c2ccccn2)CC1` (configuration not stated): 0.0112 mg/mL (≈ 36.1 µM); `CCOC(=O)Cc1csc(NC(=O)c2ccc([N+](=O)[O-])cc2[N+](=O)[O-])n1`: greater than 0.057 mg/mL.

For the compound `CCOc1cc(C2NC(=O)c3ccccc3O2)ccc1OC` (configuration not stated), the kinetic solubility came to 0.0086 mg/mL (≈ 28.7 µM). Next, `COc1cccc(C(=O)NC2CCCc3ccccc32)c1OC` (configuration not stated): 0.0316 mg/mL (≈ 101 µM). In turn, `Cc1cc(C)c(C)c(S(=O)(=O)NC(C)C(=O)O)c1C` (configuration not stated) registered a solubility (kinetic) greater than 0.0428 mg/mL. `COc1ccc(CCNCc2ccsc2)cc1OC` came in with a kinetic solubility of 0.0371 mg/mL (≈ 134 µM). Next, `O=C(COc1ccccc1[N+](=O)[O-])OCC(=O)c1ccc(Br)s1`: 0.0599 mg/mL (≈ 150 µM). Next, `COc1cccc(CN2CCSCC2)c1OC`: 0.0242 mg/mL (≈ 95.5 µM).

Regarding `O=C(Nc1ccncc1)c1sc2ccccc2c1Cl`, the kinetic solubility amounted to 0.0008 mg/mL (≈ 2.77 µM).

For `N#Cc1c(-c2ccccc2)nc(N2CCN(Cc3ccccc3)CC2)[nH]c1=O`, the solubility (kinetic) was greater than 0.0557 mg/mL. Next, `Cc1cccc(NC(=O)COC(=O)COc2ccc3c(c2)CCC3)c1`: 0.0057 mg/mL (≈ 16.8 µM); `Cc1ccc(C(=O)Nc2ccc3ncccc3c2)cc1`: 0.0069 mg/mL (≈ 26.3 µM); `Cc1ccccc1CNC(=O)C1CCC(=O)N(C2CC2)C1` (configuration not stated): 0.0368 mg/mL (≈ 129 µM). In the case of `COCCNC(=O)COCc1cc(-c2ccc3c(c2)OCO3)on1`, the solubility (kinetic) was greater than 0.0501 mg/mL.

`Cc1csc(NC(=O)CCCC(=O)c2ccccc2)n1` returned a kinetic solubility greater than 0.0433 mg/mL.

For the compound `CS(=O)(=O)N1CCCC(C(=O)Nc2c(F)cccc2F)C1` (configuration not stated), the kinetic solubility is greater than 0.0478 mg/mL. Next, `Cn1c(C(=O)N2CCN(c3ccccn3)CC2)cc2ccccc21`: 0.0438 mg/mL (≈ 137 µM). Next, `O=C(NC1CCCCC1)C(=S)N1CCCC1`: greater than 0.0361 mg/mL.

Regarding `Cc1cc(C(=O)NCc2ccco2)c2ccccc2n1`, the solubility (kinetic) is greater than 0.0399 mg/mL. Regarding `O=C(NC1=NCCS1)c1ccc(Cl)cc1`, the kinetic solubility came out at 0.0115 mg/mL (≈ 47.8 µM). `Nc1nc(Nc2ccccc2)sc1C(=O)c1ccccc1` registered a solubility (kinetic) of 0.0043 mg/mL (≈ 14.6 µM). In the case of `COc1ccc(CC(C)NCCC(c2ccccc2)c2ccccc2)cc1` (configuration not stated), the solubility (kinetic) is 0.0471 mg/mL (≈ 131 µM). `Cc1ccc(-c2c[n+](=O)c3c(n2[O-])CCC3)cc1` gave a kinetic solubility greater than 0.0363 mg/mL.

For the compound `CN(C)Cc1c(O)ccc2c1O/C(=C\C=C\c1ccccc1)C2=O`, the kinetic solubility turned out to be 0.0468 mg/mL (≈ 146 µM). `O=C(NC(c1ccccc1)c1ccccc1)c1ccc(CO)cc1` returned a kinetic solubility of 0.0442 mg/mL (≈ 139 µM). Next, `N#CC(C#N)=CN=c1ccn(Cc2ccc(Cl)cc2Cl)cc1`: 0.0014 mg/mL (≈ 4.25 µM); `CSc1nc(-c2ccccc2)nc(NC(=O)C(C)C)c1C(C)=O`: 0.0008 mg/mL (≈ 2.43 µM). Next, `COc1cc(NC(=O)c2cc(C)no2)cc(OC)c1OC`: greater than 0.0438 mg/mL. Next, `COc1ccc2cc(C(=O)O)n(CC(=O)c3ccccc3)c2c1`: greater than 0.0464 mg/mL.
